Patent US20040266857A1, “Novel lapachone compounds and methods of use thereof” (priority 2002, published 2004)

Columns and labels:
[1] = tested on: DLD1 human colon carcinoma cells; test: Cell proliferation (colony formation) assay, DLD1; assay type: cell-based; details: DLD-1, cancer cell line DLD1, 4 h exposure, colonies scored after 10-15 days, compounds added in micromolar concentrations
Description: (§1) Cell proliferation assays were performed as described previously (Müller et al., (1996) J. Med. Chem. 39: 3132-3138; Müller et al., (1994) J. Med. Chem. 37: 1660-1669). More specifically, exponentially growing cells were seeded at 1,000 cells per well in six-well plates and allowed to attach for 24 h. […] Control wells were treated with equivalent volumes of DMSO. After 4 h, the supernatant was removed and fresh medium was added. Cultures were observed daily for 10-15 days and then were fixed and stained. Colonies of greater than 30 cells were scored as survivors. The assays of the present invention as shown in Table 2 and methods of measuring induction of E2F activity and elevation of E2F levels can be carried out following the descriptions found in Li et al., (2003) Proc Natl Acad Sci USA. 100(5): 2674-8 and U.S. Patent Application Publication No.2002/0169135, both incorporated herein by reference in their entireties.

[2] = tested on: SW-480 human colon carcinoma cells; test: Cell proliferation (colony formation) assay, SW480; assay type: cell-based; details: cancer cell line SW480, 4 h exposure, colonies scored after 10-15 days, compounds added in micromolar concentrations
Description: as §1

[3] = tested on: MCF-7 human breast carcinoma cells; test: Cell proliferation (colony formation) assay, MCF7; assay type: cell-based; details: cancer cell line MCF7, 4 h exposure, colonies scored after 10-15 days, compounds added in micromolar concentrations
Description: as §1

[4] = tested on: MIA PACA-2 human pancreatic carcinoma cells; test: Cell proliferation (colony formation) assay, PaCa-2; assay type: cell-based; details: cancer cell line PaCa-2, 4 h exposure, colonies scored after 10-15 days, compounds added in micromolar concentrations, read-out: Average IC50 Pancr. PaCa-2
Description: as §1

[5] = tested on: A549 human lung carcinoma cells; test: Cell proliferation (colony formation) assay, A549; assay type: cell-based; details: cancer cell line A549, 4 h exposure, colonies scored after 10-15 days, compounds added in micromolar concentrations
Description: as §1, with “The assays of the present invention as shown in Table 2 and methods of measuring induction of E2F activity and elevation of E2F levels can be carried out following the descriptions found in Li et al., (2003) Proc Natl Acad Sci USA.” left out

[6] = tested on: HT-29 human colon carcinoma cells; test: Cell proliferation (colony formation) assay, HT-29; assay type: cell-based; details: cancer cell line HT-29, 4 h exposure, colonies scored after 10-15 days, compounds added in micromolar concentrations
Description: as §1

[7] = tested on: NCM 460 normal colonic epithelial cells; test: Cell proliferation (colony formation) assay, NCM460 normal cells; assay type: cell-based; details: Homo sapiens; normal cell line NCM460; 4 h exposure, colonies scored after 10-15 days; compounds added in micromolar concentrations; read-out: Average IC50 Normal Cell Lines Colon NCM460
Description: as §1

[8] = tested on: MCF 10A normal breast epithelial cells; test: Cell proliferation (colony formation) assay, MCF10A normal cells; assay type: cell-based; details: Homo sapiens, normal cell line MCF10A, 4 h exposure, colonies scored after 10-15 days, compounds added in micromolar concentrations, read-out: Average IC50 Normal Cell Lines Breast MCF10A
Description: as §1

[9] = tested on: human cancer cell lines; details: single agent; typical range; read-out: antineoplastic activity against human cancer cell lines (IC50); cited from earlier work
[10] = tested on: normal fresh or proliferating human PBMC; details: cited from earlier work
[11] = tested on: E2F family of transcription factors; details: cancer cells versus normal cells; cited from earlier work
[12] = tested on: cancer cell lines and normal cells; details: Li et al. 2003; cited from earlier work

IC50 [1] [nM]	IC50 [2] [nM]	IC50 [3] [nM]	IC50 [4] [nM]	IC50 [5] [nM]	IC50 [6] [nM]	Structure (SMILES)	IC50 [7] [nM]	IC50 [8] [nM]	IC50 [9] [nM]	cytotoxic effects on normal human PBMC [10]	induction of sustained E2F activity in nuclei of cancer cells but not in normal cells [11]	induction of apoptosis in cancer cell lines versus normal cells [12]
32000	32000	16000	–	–	–	CC1(C)CCC2=C(S1)C(=O)c1ccccc1C2=O [Compound 2, 3,4-dihydro-2,2-dimethyl-2H-naphtho[2,3-b]thiopyran-5,10-dione]	–	–	–	–	–	–
900	900	1000	–	–	1500	CC1SC2=C(C(=O)C(=O)c3ccccc32)C1(C)C (stereo not drawn) [Compound 3, 2,3,3-trimethyl-2H-3H-naphtho[1,2-b]thiophene-4,5-dione]	2000	–	–	–	–	–
–	–	–	1300	2300	1700	CC1SC2=C(C(=O)C(=O)c3ccccc32)C1(c1ccccc1)c1ccccc1 (stereo not drawn) [Compound 5, 2-methyl-3,3-diphenyl-2H-3H-naphtho[1,2-b]thiophene4,5-dione]	7800	5900	–	–	–	–
–	–	–	1200	1600	1600	CC1(C)CCSC2=C1C(=O)C(=O)c1ccccc12 [Compound 6, 3,4-dihydro4,4-dimethyl-2H-naphtho[1,2-b]thiopyran-5,6-dione]	6000	6300	–	–	–	–
–	–	–	2300	2000	2200	O=C1C(=O)c2ccccc2C2=C1C(c1ccccc1)CCS2 (stereo not drawn) [Compound 7, 3,4-dihydro-4-phenyl-2H-naphtho[1,2-b]thiopyran-5,6-dione]	8800	7000	–	–	–	–
–	–	–	2200	3100	4000	CC1SC2=C(OC1(C)C)C(=O)C(=O)c1ccccc12 (stereo not drawn) [Compound 12, 2,2,3-trimethyl-11,12-dehydro-naphtho[1,2-b]thioxane-9,10-dione]	13100	14100	–	–	–	–

Second part, the compound before the results:

Structure (SMILES)	IC50 [1] [nM]	IC50 [2] [nM]	IC50 [3] [nM]	IC50 [4] [nM]	IC50 [5] [nM]	IC50 [6] [nM]	IC50 [7] [nM]	IC50 [8] [nM]	IC50 [9] [nM]	cytotoxic effects on normal human PBMC [10]	induction of sustained E2F activity in nuclei of cancer cells but not in normal cells [11]	induction of apoptosis in cancer cell lines versus normal cells [12]
CC1(C)CCC2=C(S1)c1ccccc1C(=O)C2=O [Compound 1, 3,4-dihydro-2,2-dimethyl-2H-naphtho[1,2-b]thiopyran-5,6-dione]	2000	1500	1000	1500	1700	1800	7500	6700	–	–	–	–
CC1CSC2=C(O1)C(=O)C(=O)c1ccccc12 (stereo not drawn) [Compound 9, 2-methyl-11,12-dehydro-naphtho[1,2-b]thioxane-9,10-dione]	–	1500	–	1400	2000	1500	4900	6400	–	–	–	–
CC1OC2=C(SC1C)c1ccccc1C(=O)C2=O (stereo not drawn) [Compound 10, 2,3-dimethyl-11,12-dehydro-naphtho[1,2-b]thioxane-9,10-dione]	–	1000	–	2000	1800	2000	6100	8000	–	–	–	–
CC1OC2=C(C(=O)C(=O)c3ccccc32)C1(C)C (stereo not drawn) [Dunnione, 2,3,3-trimethyl-2,3,4,5-tetrahydro-naphtho(2,3-b)dihydrofuran-6,7-dione, reference compound]	2800	2800	1000	–	–	–	4000	–	–	–	–	–
CC1(C)CCC2=C(O1)c1ccccc1C(=O)C2=O [β-Lapachone, 3,4-dihydro-2,2-dimethyl-2H-naphtho[1,2-b]pyran-5,6-dione, reference compound]	3600	3300	1000	1600	–	2100	8100	5800	1000 to 10000	No cytotoxic effects	induces sustained E2F activity	induces apoptosis only in cancer cell lines and not in normal cells
